# Assay results published in publication PMC3265452 (PLoS Neglected Tropical Diseases, 2012).
# Where a name gives a salt, the structure may show the parent alone.
# Target: AaDOP2 (Aedes aegypti, UniProt H6D5H2)
# Experiment: AaDOP2 antagonist screen of the LOPAC1280 library (HEK-CRELuc-Aadop2 cells, luminescence)
# Assay type: cell-based
# Settings: not given
# AaDOP2, sequence (H6D5H2 1-476): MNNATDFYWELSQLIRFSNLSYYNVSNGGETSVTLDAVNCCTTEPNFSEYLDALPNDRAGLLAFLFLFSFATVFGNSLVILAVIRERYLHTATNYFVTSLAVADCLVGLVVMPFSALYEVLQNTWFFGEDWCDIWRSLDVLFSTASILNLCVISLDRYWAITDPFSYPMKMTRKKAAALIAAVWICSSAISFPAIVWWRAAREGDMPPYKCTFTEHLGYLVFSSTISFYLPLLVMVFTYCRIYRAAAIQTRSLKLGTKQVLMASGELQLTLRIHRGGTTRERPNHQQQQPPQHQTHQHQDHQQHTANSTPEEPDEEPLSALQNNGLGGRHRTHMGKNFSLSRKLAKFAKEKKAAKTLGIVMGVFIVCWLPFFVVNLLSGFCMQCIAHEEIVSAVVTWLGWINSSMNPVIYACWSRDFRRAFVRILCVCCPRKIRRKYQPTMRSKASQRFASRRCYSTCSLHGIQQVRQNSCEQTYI
Compound,"Compound effect (percent receptor signaling in presence of test compound, relative lux units relative to the SCH23390 control)",% of the SCH23390 effect (percent inhibition of receptor response relative to the SCH23390 control) [%]
"CC(C)CN(C)c1nc(N)c(C(=O)N=C(N)N)nc1Cl [Compound 61, 5-(N-Methyl-N-isobutyl)amiloride]",72,–
"O=C(Nc1cccc(C(=O)Nc2ccc(S(=O)(=O)O)c3cc(S(=O)(=O)O)cc(S(=O)(=O)O)c23)c1)Nc1cccc(C(=O)Nc2ccc(S(=O)(=O)O)c3cc(S(=O)(=O)O)cc(S(=O)(=O)O)c23)c1 [Compound 873, NF 023]",94,–
"COc1[nH]c2ccc(F)cc2c1C(=O)OCC1CCN(CCNS(C)(=O)=O)CC1.NS(=O)(=O)O [Compound 626, GR 125487 sulfamate salt]",87,–
"O=C1NC(=O)C(c2ccccc2)(c2ccccc2)N1 [Compound 382, 5,5-Diphenylhydantoin]",96,–
"N=C(N)c1ccc(OCCCCCOc2ccc(C(=N)N)cc2)cc1 [Compound 917, Pentamidine isethionate]",87,–
"Ic1ccccc1CNC1C2CCN(CC2)C1C(c1ccccc1)c1ccccc1.O=C(O)C(=O)O [Compound 725, L-703,606 oxalate]",98,–
"COc1ccc(CCN(C)CCCC(C#N)(c2ccc(OC)c(OC)c2)C(C)C)cc1OC.Cl (racemic) [Compound 1252, (±)-Verapamil hydrochloride]",117,–
"Cl.N[C@@H](CCl)C(=O)O [Compound 315, beta-Chloro-L-alanine hydrochloride]",99,–
"CCOC(=O)c1ncn2c1CN(C)C(=O)c1cc(F)ccc1-2 [Compound 523, Flumazenil]",124,–
"O=C1CC[C@@]2(O)[C@H]3Cc4ccc(O)c5c4[C@@]2(CCN3CC2CC2)[C@H]1O5 [Compound 845, Naltrexone hydrochloride]",101,–
"C=C1C(=O)O[C@H]2[C@H]1CC/C(C)=C/CC[C@@]1(C)O[C@@H]21 [Compound 919, Parthenolide]",74,–
"COc1cc(CCN)ccc1O.Cl [Compound 768, 3-Methoxy-4-hydroxyphenethylamine hydrochloride]",116,–
"Clc1cnc(Oc2ccc(Oc3ncc(Cl)cc3Cl)cc2)c(Cl)c1 [Compound 1150, TCPOBOP]",91,–
"COc1cc2c(cc1OC)-c1c/c(=N\c3c(C)cc(C)cc3C)n(C)c(=O)n1CC2 [Compound 1157, Trequinsin hydrochloride]",133,–
"O=C1C(SCCO)=C(SCCO)C(=O)c2ccccc21 [Compound 631, NSC 95397]",17,83
"CCCCC1C(=O)N(c2ccccc2)N(c2ccccc2)C1=O [Compound 980, Phenylbutazone]",96,–
"CC(CCc1ccc(O)cc1)NCCc1ccc(O)c(O)c1 (stereo not drawn) [Compound 357, Dobutamine hydrochloride]",98,–
"CCN(c1nc(N)c(C(=O)NC(=N)N)nc1Cl)C(C)C [Compound 37, 5-(N-Ethyl-N-isopropyl)amiloride]",75,–
"Clc1ccc(N2C[C@H]3CC[C@@H](C2)N3)nn1 [Compound 414, DBO-83]",100,–
"CCOC(=O)c1cnc2c(cnn2CC)c1NN=C(C)C [Compound 476, Etazolate hydrochloride]",136,–
"O=C(O)C1=CCNCC1 [Compound 561, Isoguvacine hydrochloride]",71,–
"OC[C@H]1O[C@@H](n2cnc3c(NC4CCCC4)nc(Cl)nc32)[C@H](O)[C@@H]1O [Compound 338, 2-Chloro-N6-cyclopentyladenosine]",92,–
"Cc1cnc(C(=O)NCCc2ccc(S(=O)(=O)NC(=O)NC3CCCCC3)cc2)cn1 [Compound 567, Glipizide]",103,–

Compound,"Compound effect (percent receptor signaling in presence of test compound, relative lux units relative to the SCH23390 control)",% of the SCH23390 effect (percent inhibition of receptor response relative to the SCH23390 control) [%]
"CC(/C=C/c1cccc(Oc2ccc(F)cc2)c1)N(O)C(N)=O (stereo not drawn) [Compound 173, BWB70C]",118,–
"N=C(N)c1ccccc1 [Compound 181, Benzamidine hydrochloride]",87,–
"CC[C@H](CO)Nc1nc(NCc2ccccc2)c2ncn(C(C)C)c2n1 [Compound 1055, Roscovitine]",28,–
"CN(C)CCC(c1ccccc1)c1ccccn1 (stereo not drawn) [Compound 963, Pheniramine maleate]",91,–
"O=C(O)c1cc[c]([Hg][Cl])cc1 [Compound 276, 4-Chloromercuribenzoic acid]",96,–
17alpha-hydroxyprogesterone [Compound 593],83,–
"N#CCCN.N#CCCN.O=C(O)/C=C/C(=O)O [Compound 38, 3-Aminopropionitrile fumarate]",100,–
"C/C=C(/C)C(=O)O[C@H]1C(C)=C2[C@H]([C@@H]1OC(=O)CCCCCCC)[C@@](C)(OC(C)=O)C[C@H](OC(=O)CCC)[C@@]1(O)[C@H]2OC(=O)[C@@]1(C)O [Compound 1215, Thapsigargin]",103,–
"CC(N/C(=N\C#N)Nc1ccncc1)C(C)(C)C (stereo not drawn) [Compound 1016, Pinacidil]",89,–
"O=c1[nH]c2ccccc2n1C1CCN(CCCC(c2ccc(F)cc2)c2ccc(F)cc2)CC1 [Compound 927, Pimozide]",61,–
"CCCCCC(O)c1cccc(OCc2ccc3ccccc3n2)c1 (stereo not drawn) [Compound 1049, REV 5901]",103,–
"NCCCP(=O)(O)O [Compound 80, 3-Aminopropylphosphonic acid]",101,–
"Cc1c(C)c2c(c(C)c1O)CCC(C)(CN1CCN(c3cc(N4CCCC4)nc(N4CCCC4)n3)CC1)O2.Cl.Cl (stereo not drawn) [Compound 1235, U-83836 dihydrochloride]",103,–
"CC(C)C[C@H]1C(=O)N2CCC[C@H]2[C@]2(O)O[C@](NC(=O)[C@@H]3C=C4c5cccc6[nH]c(Br)c(c56)C[C@H]4N(C)C3)(C(C)C)C(=O)N12.CS(=O)(=O)O [Compound 162, (+)-Bromocriptine methanesulfonate]",37,–
"Cl.c1ccc([C@H]2CN3CCSC3=N2)cc1 [Compound 717, (-)-Tetramisole hydrochloride]",90,–
"NC(N)=Nc1nc(CSCCC(N)=NS(N)(=O)=O)cs1 [Compound 530, Famotidine]",115,–
"Br.CO[C@H]1CC=C2CCN3CCC4=C(CC(=O)OC4)[C@]23C1 [Compound 463, Dihydro-beta-erythroidine hydrobromide]",103,–
"CCn1cnc2c(Nc3cccc(Cl)c3)nc(N[C@@H]3CCCC[C@@H]3N)nc21.Cl [Compound 246, CGP-74514A hydrochloride]",99,–
"C[C@]12CCC(=O)C=C1CC[C@@H]1[C@@H]2CC[C@]2(C)C(=O)CC[C@@H]12 [Compound 108, 4-Androstene-3,17-dione]",115,–
"N[C@@H](Cc1ccc(O)c(O)c1)C(=O)O [Compound 430, L-3,4-Dihydroxyphenylalanine]",91,–
"C[C@]12CC[C@H](OS(=O)(=O)[O-])CC1=CC[C@@H]1[C@@H]2CC[C@]2(C)C(=O)CC[C@@H]12.[Na+] [Compound 390, Dehydroisoandrosterone 3-sulfate sodium]",94,–
"N[C@H](C(=O)O)c1cc(O)no1 (racemic) [Compound 642, (±)-Ibotenic acid]",105,–

# Same assay, conditions: 10 µM compound, 300 nM dopamine, 2 hr; hit = compound effect <20
row,Compound,"Compound effect (percent receptor signaling in presence of test compound, relative lux units relative to the SCH23390 control) [%]"
1,"CCN(CC)c1ncnc2c1ncn2[C@@H]1O[C@H](COP(=O)([O-])OP(=O)([O-])C(Br)(Br)P(=O)([O-])O)[C@@H](O)[C@H]1O.[Na+].[Na+].[Na+] [Compound 151, ARL 67156 trisodium salt]",115
2,"Cl.Cl.Fc1ccc(C(OCCN2CCN(CCCc3ccccc3)CC2)c2ccc(F)cc2)cc1 [Compound 445, GBR-12909 dihydrochloride]",59
3,"CC(N)=O [Compound 17, Acetamide]",108
4,"Cl.NO [Compound 616, Hydroxylamine hydrochloride]",118
5,"Br.C=CCN1CCc2c(cc(O)c(O)c2Br)[C@@H](c2ccccc2)C1 [Compound 206, R(+)-6-Bromo-APB hydrobromide]",182
